Our source for the EC50, inhibition and IC50 values is ChEMBL document CHEMBL1134935, “Novel lopinavir analogues incorporating non-Aromatic P-1 side chains--synthesis and structure--activity relationships” (Bioorg Med Chem Lett, 2002).

For assay [1], the system named is MT4. Kind of assay: Antiviral activity against the cytopathic effects of HIV IIIB in MT-4 cells was assayed in the presence of 50% human serum. In kind it is functional, cell-based. For orientation: Protection from cytopathic effect is a common read-out in antiviral testing.
Assay [2] addresses Human immunodeficiency virus type 1 protease (Human immunodeficiency virus 1) (UniProt Q72874). The assay is described as follows: Compound was tested for its inhibitory potency against HIV protease at 0.5 nM.
The test system of assay [3] is MT4. Kind of assay: Cytotoxicity against MT-4 cells. Format: functional, cell-based. The settings on record: Homo sapiens.

Molecules are shown by their SMILES.

As for `Cc1cccc(C)c1OCC(=O)N[C@@H](Cc1ccccc1)[C@@H](O)C[C@H](Cc1ccccc1)NC(=O)[C@H](C(C)C)N1CCCNC1=O` [LOPINAVIR], the EC50 (in general, the concentration needed to bring the measured effect to its halfway point) in assay [1] worked out at 0.1 µM. In addition, the inhibition – broadly, the relative decrease from the control value, in per cent – in assay [2] was determined as 93%. The IC50 – broadly, the concentration at which inhibition is half-maximal – in assay [3] is 17.8 µM.
On the same counts, the results for `Cc1cccc(C)c1OCC(=O)N[C@@H](Cc1ccccc1)[C@@H](O)C[C@H](CCC(C)C)NC(=O)[C@H](C(C)C)N1CCCNC1=O` are 0.34 µM, 97% and 18.7 µM.
Regarding `Cc1cccc(C)c1OCC(=O)N[C@@H](Cc1ccccc1)[C@@H](O)C[C@H](CC(C)C)NC(=O)[C@H](C(C)C)N1CCCNC1=O`, the EC50 in assay [1] was 0.32 µM. The inhibition in assay [2] is 64%. This compound also came in with an IC50 in assay [3] of 34.4 µM.
For the compound `CCC(CC)C[C@@H](C[C@H](O)[C@H](Cc1ccccc1)NC(=O)COc1c(C)cccc1C)NC(=O)[C@H](C(C)C)N1CCCNC1=O`, in assay [1], the EC50 came out at 2.8 µM. In addition, the inhibition in assay [2] is 87%. In assay [3], half-maximal inhibition (IC50) was put at 17.8 µM.
`Cc1cccc(C)c1OCC(=O)N[C@@H](Cc1ccccc1)[C@@H](O)C[C@@H](NC(=O)[C@H](C(C)C)N1CCCNC1=O)C(C)C`: in assay [1], the concentration giving a half-maximal response (EC50) worked out at 0.26 µM. In assay [2], this compound returned an inhibition of 93%. This compound also had an IC50 in assay [3] of 56.2 µM.
For `CCCC[C@@H](C[C@H](O)[C@H](Cc1ccccc1)NC(=O)COc1c(C)cccc1C)NC(=O)[C@H](C(C)C)N1CCCNC1=O` the same measures were 0.92 µM, 87% and 32.9 µM.
